Results reported in ChEMBL document CHEMBL1152671, “Structure-activity relationship studies of manzamine A: amidation of positions 6 and 8 of the beta-carboline moiety” (Bioorg Med Chem, 2009).
Values after ≈ are worked out from the molar mass of the structure shown. Active and inactive are the calls of the source. The rule behind the calls is not given here.

Key:
Candida albicans [1] = test system: Candida albicans
Description: Antifungal activity against Candida albicans after 24 hrs by alamar blue assay

Vero = assay: Cytotoxicity against african green monkey Vero cells up to 470 nM by neutral red assay; format: cell-based; settings: chlorocebus sabaeus
Plasmodium falciparum [2] = assay: Antimalarial activity against chloroquine-resistant Plasmodium falciparum W2 infected in African green monkey (Cercopithecus aethiops) (Cercopithecus aethiops) Vero cells assessed as parasite LDH activity after 72 hrs; format: functional, organism-based
[3] = test system: Mycobacterium intracellulare; assay: Antibacterial activity against Mycobacterium intracellular after 24 hrs by alamar blue assay; format: functional
Pseudomonas aeruginosa = assay: Antibacterial activity against Pseudomonas aeruginosa by modified NCCLS method; format: functional, organism-based
Plasmodium falciparum [4] = assay: Antimalarial activity against chloroquine-sensitive Plasmodium falciparum D6 infected in African green monkey (Cercopithecus aethiops) Vero cells assessed as parasite LDH activity after 72 hrs; format: functional, organism-based
Candida albicans [5] = assay: Antifungal activity against Candida albicans by modified NCCLS method; format: functional, organism-based
[6] = test system: Mycobacterium intracellulare; assay: Antibacterial activity against Mycobacterium intracellular by alamar blue assay; format: functional, organism-based
Aspergillus fumigatus [7] = test system: Aspergillus fumigatus
Description: Antifungal activity against Aspergillus fumigatus after 24 hrs by alamar blue assay

Cryptococcus neoformans [8] = assay: Antifungal activity against Cryptococcus neoformans after 24 hrs by alamar blue assay; format: functional
Cryptococcus neoformans [9] = assay: Antifungal activity against Cryptococcus neoformans by modified NCCLS method; format: functional, organism-based
Escherichia coli = assay: Antibacterial activity against Escherichia coli by modified NCCLS method; format: functional, organism-based
Aspergillus fumigatus [10] = assay: Antifungal activity against Aspergillus fumigatus by modified NCCLS method; format: functional, organism-based
[11] = Cryptococcus neoformans, read-out: IC50
[12] = Candida albicans, read-out: IC50

| SMILES | MIC (Candida albicans [1]) | Activity (Vero) | IC50 (Plasmodium falciparum [2]) | MIC [3] | Activity (Pseudomonas aeruginosa) | IC50 (Plasmodium falciparum [4]) | IC50 (Candida albicans [5]) | IC50 [6] | MIC (Aspergillus fumigatus [7]) | MIC (Cryptococcus neoformans [8]) | IC50 (Cryptococcus neoformans [9]; [11]) | Activity (Escherichia coli) | IC50 (Aspergillus fumigatus [10]) | IC50 (Cryptococcus neoformans [9]) | IC50 (Candida albicans [5]; [12]) | IC50 (Aspergillus fumigatus [10]; Aspergillus fumigatus, read-out: IC50) |
| --- | --- | --- | --- | --- | --- | --- | --- | --- | --- | --- | --- | --- | --- | --- | --- | --- |
| CC(C)(C)CC(=O)Nc1cccc2c1[nH]c1c(C3=C[C@@]4(O)CC/C=C\CCCCN5CC[C@@H]3[C@]3(C[C@@H]6/C=C\CCCCN6[C@H]34)C5)nccc12 | inactive | Non-toxic | 127 nM | 3.78 µM (≈ 2.5 µg/mL) | inactive | 139 nM | Not Active | 1510 nM | inactive | inactive | 14400 nM | inactive | Not Active |  |  |  |
| O=C(Nc1cccc2c1[nH]c1c(C3=C[C@@]4(O)CC/C=C\CCCCN5CC[C@@H]3[C@]3(C[C@@H]6/C=C\CCCCN6[C@H]34)C5)nccc12)C1CCCCC1 [8-CYCLOHEXAMIDOMANZAMINE A] | inactive | Non-toxic | 995 nM | 14.8 µM (≈ 10 µg/mL) | inactive | 950 nM | Not Active | 11100 nM | inactive | inactive |  | inactive | Not Active | Not Active |  |  |
| CC(=O)Nc1cccc2c1[nH]c1c(C3=C[C@@]4(O)CC/C=C\CCCCN5CC[C@@H]3[C@]3(C[C@@H]6/C=C\CCCCN6[C@H]34)C5)nccc12 [8-ACETAMIDOMANZAMINE A] | inactive | Non-toxic | 231 nM | 2.06 µM (≈ 1.25 µg/mL) | inactive | 182 nM | Not Active | 1650 nM | inactive | inactive | 33400 nM | inactive | Not Active |  |  |  |
| CC(=O)Nc1ccc2[nH]c3c(C4=C[C@@]5(O)CC/C=C\CCCCN6CC[C@@H]4[C@]4(C[C@@H]7/C=C\CCCCN7[C@H]45)C6)nccc3c2c1 [6-ACETAMIDOMANZAMINE A] | inactive | Non-toxic | 1980 nM | 16.5 µM (≈ 10 µg/mL) | inactive | 1290 nM | Not Active | 9910 nM | inactive | inactive |  | inactive | Not Active | Not Active |  |  |
| CCC(=O)Nc1ccc2[nH]c3c(C4=C[C@@]5(O)CC/C=C\CCCCN6CC[C@@H]4[C@]4(C[C@@H]7/C=C\CCCCN7[C@H]45)C6)nccc3c2c1 [6-N-PROPAMIDOMANZAMINE A] | inactive | Non-toxic | 1940 nM | 8.07 µM (≈ 5 µg/mL) | inactive | 1160 nM | Not Active | 5650 nM | inactive | inactive |  | inactive | Not Active | Not Active |  |  |
| CC(C)C(=O)Nc1cccc2c1[nH]c1c(C3=C[C@@]4(O)CC/C=C\CCCCN5CC[C@@H]3[C@]3(C[C@@H]6/C=C\CCCCN6[C@H]34)C5)nccc12 [8-ISOBUTAMIDOMANZAMINE A] | inactive | Non-toxic | 205 nM | 1.97 µM (≈ 1.25 µg/mL) | inactive | 158 nM | Not Active | 1030 nM | inactive | inactive | 3160 nM | inactive | Not Active |  |  |  |
| CCCCCCC(=O)Nc1cccc2c1[nH]c1c(C3=C[C@@]4(O)CC/C=C\CCCCN5CC[C@@H]3[C@]3(C[C@@H]6/C=C\CCCCN6[C@H]34)C5)nccc12 [8-N-OCTAMIDOMANZAMINE A] | inactive | Non-toxic | 43 nM | 1.81 µM (≈ 1.23 µg/mL) | inactive | 55 nM | Not Active | 508 nM | inactive | 29 µM (≈ 19.6 µg/mL) | 1010 nM | inactive | Not Active |  |  |  |
| O=C(O)c1cn(C2CC2)c2cc(N3CCNCC3)c(F)cc2c1=O [CIPROFLOXACIN] |  |  |  |  |  |  |  | 1060 nM |  |  |  |  |  |  |  |  |
| CC(C)(C)C(=O)Nc1ccc2[nH]c3c(C4=C[C@@]5(O)CC/C=C\CCCCN6CC[C@@H]4[C@]4(C[C@@H]7/C=C\CCCCN7[C@H]45)C6)nccc3c2c1 [6-PIVALAMIDOANZAMINE A] | inactive | Non-toxic | 417 nM | 3.86 µM (≈ 2.5 µg/mL) | inactive | 231 nM | Not Active | 1540 nM | inactive | inactive |  | inactive | Not Active | Not Active |  |  |
| CCCC(=O)Nc1ccc2[nH]c3c(C4=C[C@@]5(O)CC/C=C\CCCCN6CC[C@@H]4[C@]4(C[C@@H]7/C=C\CCCCN7[C@H]45)C6)nccc3c2c1 [6-N-BUTAMIDOMANZAMINE A] | inactive | Non-toxic | 1890 nM | 7.89 µM (≈ 5 µg/mL) | inactive | 1150 nM | Not Active | 4740 nM | inactive | inactive |  | inactive | Not Active | Not Active |  |  |
| CCCCC(=O)Nc1ccc2[nH]c3c(C4=C[C@@]5(O)CC/C=C\CCCCN6CC[C@@H]4[C@]4(C[C@@H]7/C=C\CCCCN7[C@H]45)C6)nccc3c2c1 [6-N-PENTAMIDOMANZAMINE A] | inactive | Non-toxic | 1480 nM | 3.86 µM (≈ 2.5 µg/mL) | inactive | 1240 nM | Not Active | 2320 nM | inactive | inactive |  | inactive | Not Active | Not Active |  |  |
| CCCCCCC(=O)Nc1ccc2[nH]c3c(C4=C[C@@]5(O)CC/C=C\CCCCN6CC[C@@H]4[C@]4(C[C@@H]7/C=C\CCCCN7[C@H]45)C6)nccc3c2c1 [6-N-OCTAMIDOMANZAMINE A] | inactive | Non-toxic | 754 nM | 29 µM (≈ 19.6 µg/mL) | inactive | 696 nM | Not Active | 17400 nM | inactive | inactive |  | inactive | Not Active | Not Active |  |  |
| C[C@@H]1CC[C@H]2[C@@H](C)C(=O)O[C@@H]3O[C@@]4(C)CC[C@@H]1[C@]32OO4 [ARTEMISININ] |  |  | 28 nM |  |  | 46 nM |  |  |  |  |  |  |  |  |  |  |
| CCC(=O)Nc1cccc2c1[nH]c1c(C3=C[C@@]4(O)CC/C=C\CCCCN5CC[C@@H]3[C@]3(C[C@@H]6/C=C\CCCCN6[C@H]34)C5)nccc12 [8-N-PROPAMIDOMANZAMINE A] | inactive | Non-toxic | 87 nM | 2.02 µM (≈ 1.25 µg/mL) | inactive | 123 nM |  | 1520 nM | inactive |  |  | inactive |  |  | > 32300 nM | > 32300 nM |
| CCCC(=O)Nc1cccc2c1[nH]c1c(C3=C[C@@]4(O)CC/C=C\CCCCN5CC[C@@H]3[C@]3(C[C@@H]6/C=C\CCCCN6[C@H]34)C5)nccc12 [8-N-BUTAMIDOMANZAMINE A] | inactive | Non-toxic | 121 nM | 1.97 µM (≈ 1.25 µg/mL) | inactive | 35 nM | Not Active | 868 nM | inactive | inactive | 23700 nM | inactive | Not Active |  |  |  |
| Oc1cccc2c1[nH]c1c(C3=C[C@@]4(O)CC/C=C\CCCCN5CC[C@@H]3[C@]3(C[C@@H]6/C=C\CCCCN6[C@H]34)C5)nccc12 | inactive |  | 14 nM |  |  | 11 nM |  | 177 nM |  |  | 3550 nM |  |  |  | 6200 nM |  |
| CC(C)C(=O)Nc1ccc2[nH]c3c(C4=C[C@@]5(O)CC/C=C\CCCCN6CC[C@@H]4[C@]4(C[C@@H]7/C=C\CCCCN7[C@H]45)C6)nccc3c2c1 [6-ISOBUTAMIDOMANZAMINE A] | inactive | Non-toxic | 1550 nM | 3.95 µM (≈ 2.5 µg/mL) | inactive | 1100 nM | Not Active | 3160 nM | inactive | inactive |  | inactive | Not Active | Not Active |  |  |
| CC(C)(C)C(=O)Nc1cccc2c1[nH]c1c(C3=C[C@@]4(O)CC/C=C\CCCCN5CC[C@@H]3[C@]3(C[C@@H]6/C=C\CCCCN6[C@H]34)C5)nccc12 [8-PIVALAMIDOMANZAMINE A] | inactive | Non-toxic | 232 nM | 0.973 µM (≈ 0.63 µg/mL) | inactive | 170 nM | Not Active | 540 nM | inactive | inactive |  | inactive | Not Active | Not Active |  |  |
